Test results published in publication PMC5776727 (Bioorganic & medicinal chemistry letters, 2015).

Molecular target: CXCR4 (Homo sapiens, UniProt P61073)
Assay: inhibition of CXCL12
Assay type: cell-based
Conditions: read-out: SDF-1 Ca2+ Flux CEM-1 IC50; SDF-1 induced calcium release; duplicate

CXCR4, sequence (P61073 whole entry): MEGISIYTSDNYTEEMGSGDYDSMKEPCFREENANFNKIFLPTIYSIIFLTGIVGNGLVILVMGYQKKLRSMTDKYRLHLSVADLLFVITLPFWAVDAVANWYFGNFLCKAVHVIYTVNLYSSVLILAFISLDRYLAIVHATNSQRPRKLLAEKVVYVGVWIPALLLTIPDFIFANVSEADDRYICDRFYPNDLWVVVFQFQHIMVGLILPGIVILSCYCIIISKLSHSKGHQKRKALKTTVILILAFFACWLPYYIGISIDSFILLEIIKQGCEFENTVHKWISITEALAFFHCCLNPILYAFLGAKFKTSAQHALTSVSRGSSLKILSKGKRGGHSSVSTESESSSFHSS

NCCCCN(C[C@H]1CN(C(=O)Nc2ccccc2)CCN1)[C@H]1CCCc2cccnc21 [Compound 57a]
IC50: 21 µM
